Experimental data from patent US8697661B2, “Use of spinosyns and spinosyn compositions against herpesviridae viral infections” (priority 2009, dated 2014).

How the values were obtained:
in vitro = conditions: mouse
[1] = tested on: Leishmania donovati MON-2 promastigotes; assay: In vitro test against Leishmania promastigotes; conditions: Leishmania, read-out: Promastigotes IC50
[2] = tested on: macrophage mice cell type J774; conditions: J774 CC50 over amastigote IC50
[3] = tested on: Leishmania donovati MON-2 amastigotes; assay: In vitro test against Leishmania amastigotes in J774 macrophages; conditions: Leishmania, J774, read-out: Amastigotes IC50

SMILES	CC50 (in vitro) [µM]	IC50 [1] [µM]	Selectivity Index CC50/IC50ama [2]	IC50 [3] [µM]
NC[C@@H]1O[C@H](O[C@H]2[C@@H](O)[C@H](O[C@@H]3[C@@H](O)[C@H](N)C[C@H](N)[C@H]3O[C@H]3O[C@H](CO)[C@@H](O)[C@H](O)[C@H]3N)O[C@@H]2CO)[C@H](N)[C@@H](O)[C@@H]1O [Aminosidine]	448 ± 8.6	5.6 ± 0.6	34.96	12.8 ± 4
CCCCCCCCCCCCCCCCOP(=O)([O-])OCC[N+](C)(C)C [Miltefosine]	32.8 ± 5.1	0.87 ± 0.04	39.04	0.84 ± 0.04
